From ChEMBL document CHEMBL1250509, “Rose Bengal analogs and vesicular glutamate transporters (VGLUTs)” (Bioorg Med Chem, 2010)

System: not listed separately
Assay: Inhibition of VGLUT in rat synaptic vesicles assessed as [3H]glutamate uptake pretreated for 30 mins measured after 10 mins by scintillation spectrophotometer analysis; call rule not given here

| Compound | IC50 [nM] |
| --- | --- |
| O=C(O)c1ccccc1-c1c2cc(Cl)c(=O)cc-2oc2cc(O)c(Cl)cc12 | > 64000 |
| O=C(O)c1c(Cl)ccc(Cl)c1-c1c2cc(I)c(=O)c(I)c-2oc2c(I)c(O)c(I)cc12 | 27 |
| COC(=O)c1ccccc1-c1c2cc(Br)c(=O)c(Br)c-2oc2c(Br)c(O)c(Br)cc12 | 117 |
| O=C(O)c1c(Br)c(Br)c(Br)c(Br)c1-c1c2cc(I)c(=O)c(I)c-2oc2c(I)c(O)c(I)cc12 | 74 |
| O=C(O)c1ccccc1-c1c2cc([N+](=O)[O-])c(=O)c(Br)c-2oc2c(Br)c(O)c([N+](=O)[O-])cc12 [EOSIN B] | 2440 |
| O=C(O)c1c(Cl)c(Cl)c(Cl)c(Cl)c1-c1c2ccc(=O)cc-2oc2cc(O)ccc12 | 15000 |
| CCOC(=O)c1c(Cl)c(Cl)c(Cl)c(Cl)c1-c1c2cc(I)c(=O)c(I)c-2oc2c(I)c(O)c(I)cc12 | 192 |
| O=C(O)c1cccc([N+](=O)[O-])c1-c1c2cc(I)c(=O)c(I)c-2oc2c(I)c(O)c(I)cc12 | 6690 |
| O=C(O)CCc1c2cc(I)c(=O)c(I)c-2oc2c(I)c(O)c(I)cc12 | 2200 |
| O=C(OCc1ccccc1)c1c(Cl)c(Cl)c(Cl)c(Cl)c1-c1c2cc(I)c(=O)c(I)c-2oc2c(I)c(O)c(I)cc12 | 65 |
| COC(=O)c1c(Cl)c(Cl)c(Cl)c(Cl)c1-c1c2cc(I)c(=O)c(I)c-2oc2c(I)c(O)c(I)cc12 | 44 |
| COc1c(I)cc2c(c1I)Oc1c(cc(I)c(OC)c1I)C21OC(=O)c2c(Cl)c(Cl)c(Cl)c(Cl)c21 | 8820 |
| N#CSc1ccc(C(=O)O)c(-c2c3cc(I)c(=O)c(I)c-3oc3c(I)c(O)c(I)cc23)c1 | 689 |
| CCOC(=O)c1ccccc1-c1c2cc(Br)c(=O)c(Br)c-2oc2c(Br)c(O)c(Br)cc12 | 65 |
| O=C(O)c1ccccc1-c1c2cc(Br)c(=O)c(Br)c-2oc2c(Br)c(O)c(Br)cc12 | 406 |
| O=c1c(I)cc2c(-c3cc(Cl)c(Cl)c(Cl)c3Cl)c3cc(I)c(O)c(I)c3oc-2c1I [DESCARBOXY RB] | 68 |
| O=C(O)c1c(Cl)c(Cl)c(Cl)c(Cl)c1-c1c2cc(I)c(=O)c(I)c-2oc2c(I)c(O)c(I)cc12 [ROSE BENGAL SODIUM] | 19 |
| O=C(O)c1ccccc1-c1c2ccc(=O)c(I)c-2oc2c(I)c(O)ccc12 | 1060 |
| Cc1c2oc3c(C)c(O)c(I)cc3c(-c3ccccc3C(=O)O)c-2cc(I)c1=O | 531 |
| O=C(O)c1c(F)c(F)c(F)c(F)c1-c1c2cc(I)c(=O)c(I)c-2oc2c(I)c(O)c(I)cc12 | 102 |
| O=C(O)c1cc(Cl)c(Cl)cc1-c1c2cc(I)c(=O)c(I)c-2oc2c(I)c(O)c(I)cc12 | 41 |
| O=c1ccc2c(-c3ccccc3S(=O)(=O)O)c3ccc(O)c(O)c3oc-2c1O [PYROGALLOL RED] | > 32000 |
| O=C(O)c1ccccc1-c1c2cc(I)c(=O)c(I)c-2oc2c(I)c(O)c(I)cc12 | 36 |
| COC(=O)c1ccccc1-c1c2cc([N+](=O)[O-])c(=O)c(Br)c-2oc2c(Br)c(O)c([N+](=O)[O-])cc12 | 238 |
| O=C(O)c1c(Cl)c(Cl)c(Cl)c(Cl)c1-c1c2cc(Br)c(=O)c(Br)c-2oc2c(Br)c(O)c(Br)cc12 | 51 |
| O=C(O)c1c(O)cccc1-c1c2cc(I)c(=O)c(I)c-2oc2c(I)c(O)c(I)cc12 | 7800 |

System: not listed separately
Assay: Inhibition of VGLUT in rat synaptic vesicles assessed as [3H]glutamate uptake at 2.5 uM pretreated for 30 mins measured after 10 mins by scintillation spectrophotometer analysis

| Compound | IC50 |
| --- | --- |
| O=C1OC2(c3ccc(O)cc3Oc3cc(O)ccc32)c2ccccc21 [FLUORESCEIN] | Not Active |
| O=C(O)c1c(Cl)c(Cl)c(Cl)c(Cl)c1-c1c2ccc(=O)cc-2oc2cc(O)c3ccccc3c12 | Not Active |
| O=C(O)c1c(Cl)c(Cl)c(Cl)c(Cl)c1-c1c2c3ccccc3c(=O)cc-2oc2cc(O)c3ccccc3c12 | Not Active |

System: not listed separately
Assay: Inhibition of VGLUT

| Compound | IC50 [nM] | Ki [nM] |
| --- | --- | --- |
| O=C(O)c1cc(C(=O)O)c2cc(-c3ccc(-c4ccccc4)cc3)cc(O)c2n1 [QUINOLEIN DICARBOXYLIC ACID] | 40000 |  |
| N[C@]1(C(=O)O)CC[C@@H](C(=O)O)C1 | 230000 |  |
| O=C(O)c1c(Cl)c(Cl)c(Cl)c(Cl)c1-c1c2cc(I)c(=O)c(I)c-2oc2c(I)c(O)c(I)cc12 [ROSE BENGAL SODIUM] |  | 19 |

System: not listed separately
Assay: Inhibition of VMAT in rat synaptic vesicles assessed as [3H]HT uptake pretreated for 30 mins measured after 10 mins by scintillation spectrophotometer analysis

| Compound | IC50 [nM] |
| --- | --- |
| O=C(O)c1c(Cl)c(Cl)c(Cl)c(Cl)c1-c1c2cc(I)c(=O)c(I)c-2oc2c(I)c(O)c(I)cc12 [ROSE BENGAL SODIUM] | 64 |

Biological target: T1, Vesicular acetylcholine transporter (Rattus norvegicus, UniProt Q62666)
T1 sequence (Q62666 whole entry): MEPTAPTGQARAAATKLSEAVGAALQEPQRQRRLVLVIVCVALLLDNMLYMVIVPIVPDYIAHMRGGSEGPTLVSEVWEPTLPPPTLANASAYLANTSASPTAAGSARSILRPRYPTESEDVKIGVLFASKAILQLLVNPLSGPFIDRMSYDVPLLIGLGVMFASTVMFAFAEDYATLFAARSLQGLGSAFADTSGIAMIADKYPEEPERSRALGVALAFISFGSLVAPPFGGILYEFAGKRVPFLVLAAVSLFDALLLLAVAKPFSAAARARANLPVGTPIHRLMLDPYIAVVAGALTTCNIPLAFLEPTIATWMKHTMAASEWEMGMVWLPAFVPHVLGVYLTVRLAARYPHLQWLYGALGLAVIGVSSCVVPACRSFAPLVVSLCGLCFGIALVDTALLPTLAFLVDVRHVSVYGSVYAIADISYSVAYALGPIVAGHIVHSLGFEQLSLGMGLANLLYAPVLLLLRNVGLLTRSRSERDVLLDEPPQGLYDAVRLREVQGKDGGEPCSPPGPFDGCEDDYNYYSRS
Assay: Inhibition of VACHT in rat synaptic vesicles assessed as […] 30 mins measured after 10 mins by scintillation spectrophotometer analysis

| Compound | IC50 [nM] |
| --- | --- |
| O=C(O)c1c(Cl)c(Cl)c(Cl)c(Cl)c1-c1c2cc(I)c(=O)c(I)c-2oc2c(I)c(O)c(I)cc12 [ROSE BENGAL SODIUM] | 9700 |
